Several values for one entry are separate records, joined by “and”; a condition that tells them apart may be missing. Identical values can stand only once. Ends that are not written are not given here. Peptide text beside a SMILES is read from it.

This is an account of results in PMC7291858, “An Enhanced Variant Designed From DLP4 Cationic Peptide Against Staphylococcus aureus CVCC 546” (Frontiers in Microbiology, 2020).

Data set [1] deals with S. aureus CVCC 546. The data set can be described thus: Potassium ion (K+) leakage. It counts as cell-based, Staphylococcus aureus. The conditions noted are these: 1 × MIC, treated for 150 min, 0.9% saline, 10^8 CFU/mL, ICP, n = 3. How it is done: To further investigate the effects of peptides on membrane integrity, K^+ leakage determination was carried out as previously described ([Miao et al., 2016]). Briefly, S. aureus CVCC 546 cells were centrifuged, washed, and resuspended in 0.9% sterile saline. The cell suspension (10^8 CFU/mL) was treated with peptides at 1 × MIC. Cells untreated and treated with DLP4 or nisin were used as blank and positive controls. At time intervals of 30, 60, 90, 120, and 150 min, the suspensions were centrifuged at 12000 rpm for 5 min. The supernatants were then subjected to measurement by Agilent inductively coupled plasma optical emission (ICP-OES).

The test system of data set [2] is Staphylococcus aureus CVCC 546. The data set can be described thus: microbe, parasite or virus in culture. In kind it is cell-based. Here is the method:
(§1) The minimal inhibitory concentration (MIC) was evaluated by a microtiter plate assay ([Wiegand et al., 2008]). Serial 2-fold dilutions of test peptides were placed into a 96-well plate containing identical bacterial inoculum and incubated at 37°C for 16∼20 h. Vancomycin was used as antibiotic control. The MIC value was defined as the lowest peptide concentration where no visible growth occurred. All tests were made in triplicate.

Data set [3] has as its system S. epidermidis ATCC 12228. The data set can be described thus: MIC, microtiter plate assay. It counts as cell-based, Staphylococcus epidermidis. The conditions noted are these: Staphylococcus epidermidis, ATCC12228, 37°C, 16∼20 h, triplicate. Here is the method: as §1
Data set [4] concerns S. suis CVCC 3928. The data set can be described thus: MIC, microtiter plate assay. In kind it is cell-based, Streptococcus suis. As to conditions: Streptococcus suis, CVCC3928, 37°C, 16∼20 h, triplicate. How it is done:
as §1

Data set [5] relates to Escherichia coli ATCC 25922. Kind of data set: MIC, microtiter plate assay. In kind it is cell-based. As to conditions: Escherichia coli, ATCC25922, 37°C, 16∼20 h, triplicate. Here is the method:
as §1

Data set [6] has as its system Salmonella pullorum CVCC 533. The data set can be described thus: MIC, microtiter plate assay. In kind it is cell-based. As to conditions: Salmonella enterica, PULLORUM, 37°C, 16∼20 h, triplicate. Here is the method: as §1
The subject of data set [7] is Streptococcus pneumoniae CVCC 2350. The data set can be described thus: MIC, microtiter plate assay. It counts as cell-based. The conditions noted are these: Streptococcus pneumoniae, CVCC2350, 37°C, 16∼20 h, triplicate. How it is done:
as §1

The test system of data set [8] is E. coli K88. Kind of data set: MIC, microtiter plate assay. It counts as cell-based, Escherichia coli. The conditions noted are these: Escherichia coli, K88, 37°C, 16∼20 h, triplicate. How it is done: as §1
In data set [9] the test system is S. enteritidis CVCC 3377. Kind of data set: MIC, microtiter plate assay. In kind it is cell-based, Salmonella enteritidis. As to conditions: Salmonella enterica, ENTERITIDIS, 37°C, 16∼20 h, triplicate. How it is done: as §1
In data set [10] the test system is mouse erythrocytes. Kind of data set: Hemolytic activity. In kind it is cell-based. The conditions noted are these: 128 μg/mL, 8% (v/v) mouse erythrocytes in PBS, 1 h, 37°C, absorbance 576 nm, n = 3. How it is done:
Hemolytic activity of peptides was evaluated with fresh mouse erythrocytes. Briefly, fresh mouse erythrocytes were collected, washed, and resuspended to a concentration of 8% (v/v) in PBS. Then, an aliquot of erythrocyte solution was added to 96-well plates containing an equal volume of peptide solution (1∼256 μg/mL) and was incubated for 1 h at 37°C. The erythrocyte suspension treated with 0.1% Triton X-100 and left untreated was employed as positive and negative controls, respectively. After centrifugation at 2000 rpm for 5 min, the supernatant was measured using a microplate reader at 576 nm. The percent hemolysis was calculated using the following formula: Percenthemolysis = [(A − A0)/(A100 − A0)] × 100%, where A, A100, and A0 represent the absorbance of the peptide sample and positive and negative controls, respectively.

The test system of data set [11] is mouse macrophage RAW 264.7. Kind of data set: Cytotoxicity, MTT assay. It counts as cell-based. As to conditions: 256 μg/mL, RAW 264.7, MTT, n = 4. Here is the method: The cytotoxicity of peptides toward mouse macrophage RAW 264.7 was evaluated by the MTT assay as described previously ([Wang X. et al., 2018]).
In general terms: Tetrazolium assays rely on reduction of a dye to a coloured formazan, in cell work by metabolically active cells.

For data set [12], the system named is S. aureus CVCC 546. The data set can be described thus: Membrane permeabilization, PI flow cytometry. As to conditions: 2 × MIC, 0.5 h, 10^8 CFU/mL, n = 3. It counts as cell-based, Staphylococcus aureus. Here is the method: The effects of peptides on membrane permeabilization were measured by flow cytometry ([Zhu et al., 2018]). […] Cells untreated and treated with 2 × MIC DLP4 or vancomycin were used as blank and positive controls. The fluorescence of the dye was monitored at an excitation wavelength of 488 nm and an emission wavelength of 635 nm.

Data set [13] relates to S. aureus CVCC 546. Kind of data set: Time-kill assay. In kind it is cell-based, Staphylococcus aureus. As to conditions: 2 × MIC, MHB, 10^5 CFU/mL, 37°C, n = 3. The source says: Time-kill assay was used to assess the killing rates of S. aureus cells by AMPs in vitro, done by measuring the number of viable bacteria left at various times after exposure to the peptides. […] At different time intervals, a certain sample was taken, serially diluted, and plated on MHA for colonies counting. Cells treated with 2 × MIC DLP4 or vancomycin and left without treatment were used as the positive and blank controls, respectively ([Flamm et al., 2019]).

Data set [14] relates to S. aureus CVCC 546. Kind of data set: Post-antibiotic effect (PAE). It counts as cell-based, Staphylococcus aureus. As to conditions: 2 × MIC, 2 h exposure, mean ± SD, n = 3. How it is done:
The PAE was determined by exposing S. aureus cells to antimicrobial agent at 1×, 2×, or 4 × MIC for 2 h. After drug removal by dilution, the bacterial culture was incubated at 37°C and 250 rpm. An aliquot of samples (50 μL) were taken for CFU counts at different time intervals until bacterial cultures became turbid. Bacteria treated with DLP4 or vancomycin and left without treatment were used as the positive and blank controls, respectively. The PAE was calculated using the following formula: PAE = T − C, where T is the time for the CFU counts to increase by 10-fold above the count observed immediately after drug removal, and C is the corresponding time for the untreated control ([Oh et al., 2019]).

The subject of data set [15] is S. aureus CVCC 546. The data set can be described thus: Mouse thigh infection model, CFU in thigh muscle. In kind it is in vivo, mouse (female CD-1). The conditions noted are these: 10 mg/kg single i.p. dose 2 h post-infection, read 24 h post-infection, n = 6. Here is the method: (§2) Mouse experiments were carried out at Gene Engineering Laboratory, Feed Research Institute of Chinese Academy of Agricultural Sciences (CAAS) and complied with institutional animal care and use policies and procedures (AEC-CAAS-20090609). All animal studies were performed with female CD-1 mice, 6∼7 weeks old.
(§3) S. aureus CVCC 546 in the exponential phase were resuspended in MHB and adjusted to 1 × 10^8 CFU/mL, a 0.1-mL inoculum was injected into the right thighs of mice. At 2 h post-infection, mice (n = 6) were administered intraperitoneally (i.p.) with peptides at 2.5, 5, or 10 mg/kg. Mice raised without any treatment, or treated with PBS, 10 mg/kg DLP4, or vancomycin were used as the blank and negative and positive controls, respectively. At 24 h post-infection, peripheral blood was collected and serum was separated for cytokine levels analysis by using enzyme-linked immunosorbent assay (ELISA) kit (R&D systems, United States). Mice were euthanized, the right thighs were aseptically removed and processed for colonies counting ([Ling et al., 2015]).

In data set [16] the test system is IL-10. The data set can be described thus: Mouse thigh infection model, serum cytokine ELISA. It counts as in vivo, mouse (female CD-1). As to conditions: 10 mg/kg i.p., serum 24 h post-infection. Here is the method: as §2, §3
On the technique in general: In an ELISA, binding on a coated surface is turned into a signal by an enzyme label.

Data set [17] has as its system IL-6. Kind of data set: Mouse thigh infection model, serum cytokine ELISA. In kind it is in vivo, mouse (female CD-1). The conditions noted are these: 10 mg/kg i.p., serum 24 h post-infection. How it is done:
as §2, §3

The test system of data set [18] is TNF-α. The data set can be described thus: Mouse thigh infection model, serum cytokine ELISA. In kind it is in vivo, mouse (female CD-1). As to conditions: 10 mg/kg i.p., serum 24 h post-infection. How it is done:
as §2, §3

Data set [19] concerns S. aureus ATCC 43300. It counts as cell-based, Staphylococcus aureus. The conditions noted are these: microtiter, serial 2-fold dilutions, 37°C, 16∼20 h, triplicate; – = no activity. In short, it runs like this: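 Broth microdilution format: peptides diluted 2-fold serially, same inoculum per well, incubated 16∼20 h at 37°C, with vancomycin as antibiotic control. Values are the lowest concentrations preventing visible growth, determined in triplicate.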

As to “nisin (ITSISLCTPGCKTGALMGCNMKTATCHCSIHVSK; also: lantibiotic: thioether rings and dehydro residues not placed; UniProt P13068 24-57, looked up) [positive control in K+ leakage assay]”, the “level of released K+” value in data set [1] stood at 1.03 mg/L.

Consider `CN[C@H](CC(C)C)C(=O)N[C@H]1C(=O)N[C@@H](CC(N)=O)C(=O)N[C@H]2C(=O)N[C@H]3C(=O)N[C@H](C(=O)N[C@H](C(=O)O)c4cc(O)cc(O)c4-c4cc3ccc4O)[C@H](O)c3ccc(c(Cl)c3)Oc3cc2cc(c3O[C@@H]2O[C@H](CO)[C@@H](O)[C@H](O)[C@H]2O[C@H]2C[C@](C)(N)[C@H](O)[C@H](C)O2)Oc2ccc(cc2Cl)[C@H]1O` [Vancomycin], for which the MIC is 0.67 µM and 1 µg/mL in [2] (Staphylococcus aureus, CVCC546, 20 h); 0.67 µM and 1 µg/mL in data set [3]; 0.17 µM and 0.25 µg/mL in [4]; 86.2 µM and 128 µg/mL in data set [5]; 86.2 µM and 128 µg/mL in [6]; 0.34 µM and 0.5 µg/mL in data set [7]. The MIC is 43.1 µM and 64 µg/mL in data set [8]; 86.2 µM and 128 µg/mL in data set [9]. The hemolysis in data set [10] was 0.54%. In data set [11], the cell viability was found to be 85.8%. The “percentage of PI-positive cells” value in data set [12] is 5.1%. Moreover, the “decrease of CFU counts within 1 h” value in data set [13] is reported as 0.22 log10 CFU/mL. Also, the PAE in data set [14] is given as 1.36 ± 0.20 h. Also, the “reduction of S. aureus in infected thigh muscles” value in [15] was 0.77 log10 (CFU/g). In addition, in data set [16], the “downregulation of serum level of IL-10” value is given as 15.82 pg/mL. For the same compound, in data set [17], the “downregulation of serum level of IL-6” value is reported as 497.48 pg/mL. For the same compound, the “downregulation of serum level of TNF-α” value in data set [18] turned out to be 1052.98 pg/mL.

For the compound `CC[C@H](C)[C@@H]1NC(=O)[C@@H]2CSSC[C@@H](C(=O)N[C@@H](CCCNC(=N)N)C(=O)N[C@@H](CCCCN)C(=O)O)NC(=O)[C@H](CC(N)=O)NC(=O)[C@@H]3CSSC[C@H](NC(=O)[C@H](C)NC(=O)[C@H](C)NC(=O)[C@H](Cc4c[nH]cn4)NC(=O)CNC(=O)[C@H](C(C)C)NC(=O)[C@H](CCCCN)NC(=O)[C@H](Cc4ccccc4)NC(=O)[C@@H]4CCCN4C(=O)[C@H](CO)NC(=O)[C@H](CC(C)C)NC(=O)[C@H](CC(C)C)NC(=O)[C@H](CC(=O)O)NC(=O)[C@@H](NC(=O)[C@@H](NC(=O)[C@H](C)N)[C@@H](C)O)CSSC[C@H](NC(=O)[C@H](Cc4c[nH]c5ccccc45)NC(=O)CNC(=O)CNC(=O)[C@H](CCCNC(=N)N)NC(=O)[C@H](CCCCN)NC(=O)CNC(=O)[C@H](CCCNC(=N)N)NC(=O)[C@H](C)NC1=O)C(=O)N[C@@H](CC(=O)O)C(=O)N[C@@H](CCCCN)C(=O)N[C@@H](CCCNC(=N)N)C(=O)N[C@@H](C)C(=O)N[C@@H](C(C)C)C(=O)N3)C(=O)N[C@@H](C)C(=O)N[C@@H](C(C)C)C(=O)N[C@@H](Cc1c[nH]cn1)C(=O)N2` [ID28] (HELM PEPTIDE1{A.T.C.D.L.L.S.P.F.K.V.G.H.A.A.C.A.V.H.C.I.A.R.G.K.R.G.G.W.C.D.K.R.A.V.C.N.C.R.K}$PEPTIDE1,PEPTIDE1,3:R3-30:R3|PEPTIDE1,PEPTIDE1,16:R3-36:R3|PEPTIDE1,PEPTIDE1,20:R3-38:R3$$$V2.0; N-terminus and C-terminus assumed; bridges inferred), the “A1 (MIC against S. aureus ATCC 43300)” value in [19] was 8 µg/mL. For the same compound, the MIC in [2] (Table 1, – = no activity) came out at 16.

What is called cell viability is a per cent measure of how many cells are alive, often set against a control. Read a low cell viability as a greater loss of cells.
